Reference: US7572797B2, “Amino substituted pyrazine derivatives for the treatment of pain” (Pfizer Inc., priority 2005, dated 2009)
Where two headings read alike, the source gives them in different places.

Tests used:
[1] = system: tetrodotoxin-sensitive voltage-gated sodium channels including NaV1.2, NaV1.3 and NaV1.7 (SHSY-5Y cell line); assay: TTX-S assay in SHSY-5Y cell line (VIPR procedure, veratridine as opener); type: cell-based; settings: read-out: TTX-S IC50, SHSY-5Y cells, veratridine 50 μM, average of replicates
Human Nav1.8 = molecular target: T1, Human Nav1.8 (Homo sapiens, UniProt Q9Y5Y9); assay: VIPR assay for Nav1.8 (FRET membrane potential, deltamethrin as opener); type: cell-based; settings: for IC50: HEK293 cells expressing human Nav1.8, average of replicates; for Selectivity Ratio: TTX-S IC50 / NaV1.8 IC50
T1 construct: expressed in transfected cells

[2] = automated dissolution procedure

T1 sequence (Q9Y5Y9 whole entry): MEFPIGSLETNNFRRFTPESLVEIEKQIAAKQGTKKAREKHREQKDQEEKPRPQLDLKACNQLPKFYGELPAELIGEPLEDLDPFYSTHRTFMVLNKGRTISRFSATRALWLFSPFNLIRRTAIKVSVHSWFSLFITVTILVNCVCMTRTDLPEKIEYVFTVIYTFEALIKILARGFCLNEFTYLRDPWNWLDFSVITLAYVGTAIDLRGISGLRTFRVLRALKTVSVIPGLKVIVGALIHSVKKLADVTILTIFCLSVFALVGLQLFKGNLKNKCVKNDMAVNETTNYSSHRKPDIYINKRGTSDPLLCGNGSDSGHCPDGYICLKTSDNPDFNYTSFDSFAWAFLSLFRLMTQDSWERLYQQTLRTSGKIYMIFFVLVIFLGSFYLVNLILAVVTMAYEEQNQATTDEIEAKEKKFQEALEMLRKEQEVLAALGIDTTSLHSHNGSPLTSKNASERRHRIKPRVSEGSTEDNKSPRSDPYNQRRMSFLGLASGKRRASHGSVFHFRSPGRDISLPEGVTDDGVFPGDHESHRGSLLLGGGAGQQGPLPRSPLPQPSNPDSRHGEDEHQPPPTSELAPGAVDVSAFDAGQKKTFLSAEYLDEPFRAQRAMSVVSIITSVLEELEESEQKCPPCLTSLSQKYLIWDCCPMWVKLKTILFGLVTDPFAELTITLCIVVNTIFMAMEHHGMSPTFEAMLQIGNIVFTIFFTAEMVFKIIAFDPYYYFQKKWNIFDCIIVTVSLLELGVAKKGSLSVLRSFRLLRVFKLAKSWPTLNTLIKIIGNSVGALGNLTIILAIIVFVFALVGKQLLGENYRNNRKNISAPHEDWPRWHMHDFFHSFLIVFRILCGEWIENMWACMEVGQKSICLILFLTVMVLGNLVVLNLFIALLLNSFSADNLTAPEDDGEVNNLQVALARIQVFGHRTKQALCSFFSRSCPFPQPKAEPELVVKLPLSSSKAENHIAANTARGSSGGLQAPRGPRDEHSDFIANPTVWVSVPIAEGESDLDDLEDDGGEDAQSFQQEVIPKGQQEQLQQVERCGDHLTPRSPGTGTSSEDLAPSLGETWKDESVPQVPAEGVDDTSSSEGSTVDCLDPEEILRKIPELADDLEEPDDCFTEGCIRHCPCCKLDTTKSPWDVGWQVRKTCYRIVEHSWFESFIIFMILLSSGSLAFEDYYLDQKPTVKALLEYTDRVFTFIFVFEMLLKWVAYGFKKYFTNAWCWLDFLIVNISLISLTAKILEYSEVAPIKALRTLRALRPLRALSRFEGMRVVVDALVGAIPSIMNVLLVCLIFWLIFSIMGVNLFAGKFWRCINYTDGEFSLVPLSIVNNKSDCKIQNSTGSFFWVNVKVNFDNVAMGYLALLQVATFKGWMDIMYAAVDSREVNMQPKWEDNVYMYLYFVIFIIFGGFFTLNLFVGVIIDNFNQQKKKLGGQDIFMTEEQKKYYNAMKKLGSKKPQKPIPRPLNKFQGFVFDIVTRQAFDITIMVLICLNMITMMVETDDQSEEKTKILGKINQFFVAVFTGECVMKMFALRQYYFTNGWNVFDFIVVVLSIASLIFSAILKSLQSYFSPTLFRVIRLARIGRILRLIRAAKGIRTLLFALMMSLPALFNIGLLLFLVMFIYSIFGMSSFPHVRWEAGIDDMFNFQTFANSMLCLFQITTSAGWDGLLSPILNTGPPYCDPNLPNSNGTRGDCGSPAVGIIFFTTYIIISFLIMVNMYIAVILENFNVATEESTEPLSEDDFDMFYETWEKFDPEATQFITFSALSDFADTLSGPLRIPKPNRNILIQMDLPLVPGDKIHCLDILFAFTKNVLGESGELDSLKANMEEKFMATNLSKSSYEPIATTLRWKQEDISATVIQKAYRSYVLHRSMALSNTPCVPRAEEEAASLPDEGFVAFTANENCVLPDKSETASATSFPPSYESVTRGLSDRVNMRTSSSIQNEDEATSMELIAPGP

Row | SMILES | IC50 ([1]; manual dissolution procedure) [µM] | IC50 (Human Nav1.8; manual dissolution procedure) [µM] | Selectivity Ratio (Human Nav1.8; manual dissolution procedure) | IC50 [1, 2] [µM] | IC50 (Human Nav1.8; [2]) [µM] | Selectivity Ratio (Human Nav1.8; [2])
1 | Cn1nccc1C(=O)Nc1cnc(-c2cc(Cl)cc(Cl)c2Cl)c(N)n1 [Example 1, N-[6-Amino-5-(2,3,5-trichlorophenyl)pyrazin-2-yl]-1-methyl-1H-pyrazole-5-carboxamide] | 11.2 | 0.988 | 11.4 | – | – | –
2 | COc1ccc(Cl)c(-c2ncc(NC(=O)c3ccnn3C)nc2N)c1 [Example 2, N-[6-Amino-5-(2-chloro-5-methoxyphenyl)pyrazin-2-yl]-1-methyl-1H-pyrazole-5-carboxamide] | – | – | – | 38.3 | 3.24 | 11.8
3 | Cn1nccc1C(=O)Nc1cnc(-c2cc(Cl)cc3c2OCCO3)c(N)n1 [Example 3, N-[6-Amino-5-(7-chloro-2,3-dihydro-1,4-benzodioxin-5-yl)pyrazin-2-yl]-1-methyl-1H-pyrazole-5-carboxamide] | – | – | – | > 28.8 | 15.2 | >1.89
4 | Cn1nccc1C(=O)Nc1cnc(-c2cc(F)ccc2Cl)c(N)n1 [Example 4, N-[6-amino-5-(2-chloro-5-fluorophenyl)pyrazin-2-yl]-1-methyl-1H-pyrazole-5-carboxamide] | – | – | – | > 30.2 | 8.73 | >3.46
5 | Cn1nccc1C(=O)Nc1cnc(-c2cccc(Cl)c2Cl)c(N)n1 [Example 5, N-[6-amino-5-(2,3-dichlorophenyl)pyrazin-2-yl]-1-methyl-1H-pyrazole-5-carboxamide] | – | – | – | > 26.3 | 6.14 | ->4.28
6 | COc1cc(Cl)cc(-c2ncc(NC(=O)c3ccnn3C)nc2N)c1Cl [Example 6, N-[6-amino-5-(2,5-dichloro-3-methoxyphenyl)pyrazin-2-yl]-1-methyl-1H-pyrazole-5-carboxamide] | – | – | – | > 20 | 4.71 | >4.25
7 | Cn1nccc1C(=O)Nc1cnc(-c2cc(Cl)ccc2Cl)c(N)n1 [Example 7, N-[6-amino-5-(2,5-dichlorophenyl)pyrazin-2-yl]-1-methyl-1H-pyrazole-5-carboxamide] | 15.1 | 3.98 | 3.79 | 20.5 | 3.8 | 5.40
8 | Cn1nccc1C(=O)Nc1cnc(-c2cc(C#N)ccc2Cl)c(N)n1 [Example 11, N-[6-amino-5-(2-chloro-5-cyanophenyl)pyrazin-2-yl]-1-methyl-1H-pyrazole-5-carboxamide] | – | – | – | > 30.2 | 4.47 | >6.76
9 | COc1cc(Cl)c(Cl)c(-c2ncc(NC(=O)c3ccnn3C)nc2N)c1 [Example 12, N-[6-Amino-5-(2,3-dichloro-5-methoxyphenyl)pyrazin-2-yl]-1-methyl-1H-pyrazole-5-carboxamide] | – | – | – | 16.6 | 1.31 | 12.67
10 | COc1cc(Cl)cc(-c2ncc(NC(=O)c3cnoc3C)nc2N)c1Cl [Example 13, N-[6-amino-5-(2,5-dichloro-3-methoxyphenyl)pyrazin-2-yl]-5-methylisoxazole-4-carboxamide] | – | – | – | > 25.8 | 10.4 | >2.48
11 | Cc1oncc1C(=O)Nc1cnc(-c2cc(Cl)cc(Cl)c2Cl)c(N)n1 [Example 14, N-[6-amino-5-(2,3,5-trichlorophenyl)pyrazin-2-yl]-5-methylisoxazole-4-carboxamide] | 3.49 | 0.276 | 12.7 | 14.7 | 1.36 | 10.8
12 | COc1ccc(Cl)c(-c2ncc(NC(=O)c3cnoc3C)nc2N)c1 [Example 15, N-[6-amino-5-(2-chloro-5-methoxyphenyl)pyrazin-2-yl]-5-methylisoxazole-4-carboxamide] | – | – | – | > 30.4 | > 30.2 | –
13 | Cc1nocc1C(=O)Nc1cnc(-c2ccccc2Cl)c(N)n1 [Example 16, N-[6-amino-5-(2-chlorophenyl)pyrazin-2-yl]-3-methylisoxazole-4-carboxamide] | – | – | – | > 24 | 1.01 | >23.6
14 | Cc1nocc1C(=O)Nc1cnc(-c2cccc(Cl)c2Cl)c(N)n1 [Example 17, N-[6-amino-5-(2,3-dichlorophenyl)pyrazin-2-yl]-3-methylisoxazole-4-carboxamide] | – | – | – | 12.5 | 0.425 | 29.4
15 | Cc1nocc1C(=O)Nc1cnc(-c2cc(Cl)cc(Cl)c2Cl)c(N)n1 [Example 18, N-[6-amino-5-(2,3,5-trichlorophenyl)pyrazin-2-yl]-3-methylisoxazole-4-carboxamide] | > 30 | 0.417 | >72.0 | – | – | –
16 | Cc1nocc1C(=O)Nc1cnc(-c2cccc3ccccc23)c(N)n1 [Example 19, N-[6-amino-5-(1-naphthyl)pyrazin-2-yl]-3-methylisoxazole-4-carboxamide] | > 30 | 4.72 | >6.36 | – | – | –

Row | SMILES | IC50 ([1]; manual dissolution procedure) [µM] | IC50 (Human Nav1.8; manual dissolution procedure) [µM] | Selectivity Ratio (Human Nav1.8; manual dissolution procedure) | IC50 [1, 2] [µM] | IC50 (Human Nav1.8; [2]) [µM] | Selectivity Ratio (Human Nav1.8; [2])
17 | Cc1nocc1C(=O)Nc1cnc(-c2cc(Cl)ccc2Cl)c(N)n1 [Example 20, N-[6-amino-5-(2,5-dichlorophenyl)pyrazin-2-yl]-3-methylisoxazole-4-carboxamide] | 12.5 | 0.188 | 66.5 | 9.2 | 0.511 | 18.00
18 | Cc1nocc1C(=O)Nc1cnc(-c2cc(Cl)cc3c2OCCO3)c(N)n1 [Example 21, N-[6-amino-5-(7-chloro-2,3-dihydro-1,4-benzodioxin-5-yl)pyrazin-2-yl]-3-methylisoxazole-4-carboxamide] | – | – | – | 20.9 | 4.81 | 4.35
19 | Cc1nonc1C(=O)Nc1cnc(-c2cc(Cl)ccc2Cl)c(N)n1 [Example 23, N-[6-amino-5-(2,5-dichlorophenyl)pyrazin-2-yl]-4-methyl-1,2,5-oxadiazole-3-carboxamide] | – | – | – | > 28.5 | 8.04 | >3.54
20 | COc1ccc(Cl)c(-c2ncc(NC(=O)c3conc3C)nc2N)c1 [Example 28, N-[6-amino-5-(2-chloro-5-methoxyphenyl)pyrazin-2-yl]-3-methylisoxazole-4-carboxamide] | – | – | – | 25.6 | 2.61 | 9.81
21 | COc1ccc(Cl)c(-c2ncc(NC(=O)c3nonc3C)nc2N)c1 [Example 29, N-[6-amino-5-(2-chloro-5-methoxyphenyl)pyrazin-2-yl]-4-methyl-1,2,5-oxadiazole-3-carboxamide] | – | – | – | > 29.4 | 7.97 | >3.69
22 | COc1ccc(Cl)c(-c2ncc(NC(=O)c3cnoc3C(C)C)nc2N)c1 [Example 30, N-[6-amino-5-(2-chloro-5-methoxyphenyl)pyrazin-2-yl]-5-isopropylisoxazole-4-carboxamide] | – | – | – | > 29.6 | 3.63 | >8.15
23 | CCc1noc(C)c1C(=O)Nc1cnc(-c2cc(OC)ccc2Cl)c(N)n1 [Example 31, N-[6-amino-5-(2-chloro-5-methoxyphenyl)pyrazin-2-yl]-3-ethyl-5-methylisoxazole-4-carboxamide] | – | – | – | > 28.1 | 5.38 | >5.22
24 | COc1ccc(Cl)c(-c2ncc(NC(=O)c3ccno3)nc2N)c1 [Example 32, N-[6-amino-5-(2-chloro-5-methoxyphenyl)pyrazin-2-yl]isoxazole-5-carboxamide] | – | – | – | > 30.2 | 6.12 | >4.93
25 | COc1ccc(Cl)c(-c2ncc(NC(=O)c3cnoc3)nc2N)c1 [Example 33, N-[6-amino-5-(2-chloro-5-methoxyphenyl)pyrazin-2-yl]isoxazole-4-carboxamide] | – | – | – | > 30.2 | > 22.7 | ->1.33
26 | COCCn1nccc1C(=O)Nc1cnc(-c2cc(OC)ccc2Cl)c(N)n1 [Example 34, N-[6-amino-5-(2-chloro-5-methoxyphenyl)pyrazin-2-yl]-1-(2-methoxyethyl)-1H-pyrazole-5-carboxamide] | – | – | – | > 30.2 | 15.6 | –
27 | COc1ccc(Cl)c(-c2ncc(NC(=O)c3c(C)noc3C)nc2N)c1 [Example 36, N-[6-amino-5-(2-chloro-5-methoxyphenyl)pyrazin-2-yl]-3,5-dimethylisoxazole-4-carboxamide] | – | – | – | > 30.2 | 13.9 | >2.18
28 | COc1ccc(Cl)c(-c2ncc(NC(=O)c3ccon3)nc2N)c1 [Example 37, N-[6-amino-5-(2-chloro-5-methoxyphenyl)pyrazin-2-yl]isoxazole-3-carboxamide] | – | – | – | > 30.2 | > 29.4 | –
29 | CCCc1oncc1C(=O)Nc1cnc(-c2cc(OC)ccc2Cl)c(N)n1 [Example 38, N-[6-amino-5-(2-chloro-5-methoxyphenyl)pyrazin-2-yl]-5-propylisoxazole-4-carboxamide] | – | – | – | > 30.4 | > 30.2 | –
30 | Cc1oncc1C(=O)Nc1cnc(-c2cc(Cl)cc3c2OCCO3)c(N)n1 [Example 39, N-[6-amino-5-(7-chloro-2,3-dihydro-1,4-benzodioxin-5-yl)pyrazin-2-yl]-5-methylisoxazole-4-carboxamide] | – | – | – | > 17.7 | 5.45 | >3.25
31 | Cc1nonc1C(=O)Nc1cnc(-c2cc(Cl)cc3c2OCCO3)c(N)n1 [Example 41, N-[6-amino-5-(7-chloro-2,3-dihydro-14-benzodioxin-5-yl)pyrazin-2-yl]-4-methyl-1,2,5-oxadiazole-3-carboxamide] | – | – | – | > 28.2 | 12.7 | >2.22
32 | Nc1nc(NC(=O)c2ccon2)cnc1-c1cc(Cl)cc2c1OCCO2 [Example 43, N-[6-amino-5-(7-chloro-2,3-dihydro-1,4-benzodioxin-5-yl)pyrazin-2-yl]isoxazole-3-carboxamide] | – | – | – | > 30.1 | > 21.1 | ->1.43
